Reference: BindingDB's records for doi:10.7270/Q2319T8T (The Scripps Research Institute Molecular Screening Center, 2007)
Where a name gives a salt, the structure may show the parent alone.

Target: Steroidogenic factor 1 (Homo sapiens, UniProt Q13285)
Assay: blockers of SF-1 LBD reporter transcription – cell-based, CHO-K1, Gal4-SF-1 LBD, luciferase luminescence, dose response (AID 600)
[1] = inactive by the depositor's call

Steroidogenic factor 1, sequence (Q13285 whole entry, the tested form may be a part): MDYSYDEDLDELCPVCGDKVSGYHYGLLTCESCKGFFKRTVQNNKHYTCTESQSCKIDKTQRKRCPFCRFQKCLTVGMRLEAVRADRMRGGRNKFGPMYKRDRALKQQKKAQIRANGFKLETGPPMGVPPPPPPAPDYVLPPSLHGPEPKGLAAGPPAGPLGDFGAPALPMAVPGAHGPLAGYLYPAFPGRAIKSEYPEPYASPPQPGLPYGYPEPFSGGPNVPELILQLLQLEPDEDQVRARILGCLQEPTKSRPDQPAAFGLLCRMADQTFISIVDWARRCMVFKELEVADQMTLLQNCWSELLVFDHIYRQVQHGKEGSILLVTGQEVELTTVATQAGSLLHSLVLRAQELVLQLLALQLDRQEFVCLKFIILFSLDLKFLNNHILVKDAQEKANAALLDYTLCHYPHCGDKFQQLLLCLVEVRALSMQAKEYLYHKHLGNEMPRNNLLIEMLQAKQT

**Q.** With O=C(NC1=NCCS1)C1COc2ccccc2O1 (stereo not drawn) [MLS000056062] as the compound, how does the IC50 read?
**A.** The IC50 was 5.24 µM.

**Q.** Oc1c(CN2CCCCC2)cc(COCc2ccccc2)c2cccnc12 [5-(benzoxymethyl)-7-(piperidinomethyl)quinolin-8-ol] was tested. Which IC50 [1] did it give?
**A.** The IC50 was 27.1 µM.

**Q.** How did the IC50 turn out when CCCN1C=CC(=C2C(=O)c3ccccc3C2=O)C=C1 [2-(1-propyl-4-pyridinylidene)indene-1,3-dione] was run?
**A.** The IC50 was 0.363 µM.

**Q.** Which IC50 [1] does the source give for COc1ccc(NC(=O)N2CCCC(c3nc(-c4ccc(C(C)C)cc4)no3)C2)cc1 (stereo not drawn) [3-[3-(4-Isopropyl-phenyl)-[1,2,4]oxadiazol-5-yl]-piperidine-1-carboxylic acid (4-methoxy-phenyl)-amide] here?
**A.** Its IC50 is 14 µM.

**Q.** Which IC50 does the source give for O=C1c2ccccc2C(=O)C1c1ccc2ccccc2n1 here?
**A.** Its IC50 is 6.72 µM.

**Q.** With Cc1ccc(N2C(=O)c3ccccc3C2O)nc1 (stereo not drawn) [2-(5-methylpyridin-2-yl)-3-oxidanyl-3H-isoindol-1-one] as the compound, how does the IC50 read?
**A.** The IC50 was 8.67 µM.

**Q.** For O=C1c2ccccc2C(=O)C1c1nccc2ccccc12 [2-(1-isoquinolinyl)indene-1,3-dione], which IC50 is on record?
**A.** Its IC50 is 4.03 µM.

**Q.** For Cc1cccc(-n2ncc3c(N4CCOCC4)ncnc32)c1 [4-[1-(3-methylphenyl)-4-pyrazolo[3,4-d]pyrimidinyl]morpholine], which IC50 is on record?
**A.** The IC50 was 4.02 µM.

**Q.** c1ccc(N2CCN(c3nc(-c4ccccn4)nc4ccccc34)CC2)cc1 [4-(4-phenyl-1-piperazinyl)-2-(2-pyridinyl)quinazoline] was tested. Which IC50 did it give?
**A.** The IC50 was 5.65 µM.

**Q.** How did the IC50 turn out when Cc1cc(C=Nn2cnnc2)c(C)n1-c1ccc(OCc2ccccc2F)cc1 [MLS000112180] was run?
**A.** The IC50 was over 3.67 µM.

**Q.** CC1CCCN(c2ncnc3c2cnn3-c2ccc(Cl)cc2)C1 (stereo not drawn) [1-(4-chlorophenyl)-4-(3-methyl-1-piperidinyl)pyrazolo[3,4-d]pyrimidine] was tested. Which IC50 did it give?
**A.** The IC50 was under 0.00503 µM.

**Q.** How did the IC50 [1] turn out when CCCCN(CCCC)S(=O)(=O)c1ccc(C(=O)Nc2nnc(CSC)o2)cc1 [4-(dibutylsulfamoyl)-N-[5-(methylsulfanylmethyl)-1,3,4-oxadiazol-2-yl]benzamide] was run?
**A.** Its IC50 is 16.5 µM.

**Q.** Which IC50 [1] does the source give for COc1ccc(CCNc2nc(C)nc3c2oc2ccccc23)cc1OC [MLS000040997] here?
**A.** Its IC50 is 10.1 µM.

**Q.** CC1CCCCC1NS(=O)(=O)c1ccc(S(=O)(=O)NCc2ccncc2)cc1 (stereo not drawn) [4-N-(2-methylcyclohexyl)-1-N-(pyridin-4-ylmethyl)benzene-1,4-disulfonamide] was tested. Which IC50 did it give?
**A.** Its IC50 is over 33 µM.

**Q.** For Cn1nc(CC(=O)Nc2ccc(N3CCN(C(=O)OC(C)(C)C)CC3)cc2)c2ccccc2c1=O [4-[4-[[2-(3-methyl-4-oxo-1-phthalazinyl)-1-oxoethyl]amino]phenyl]-1-piperazinecarboxylic acid tert-butyl ester], which IC50 is on record?
**A.** Its IC50 is 2.55 µM.

**Q.** How did the IC50 turn out when CCc1ccc(-c2nnn(CCC(=O)OC)n2)cc1 was run?
**A.** The IC50 was 6.69 µM.

**Q.** Which IC50 does the source give for Cc1cccc2cc(C#N)c(SCC(=O)N3CC(=O)Nc4ccccc43)nc12 [2-[[2-keto-2-(3-keto-2,4-dihydroquinoxalin-1-yl)ethyl]thio]-8-methyl-quinoline-3-carbonitrile] here?
**A.** The IC50 was over 3.67 µM.

**Q.** For COc1ccccc1OCC(=O)c1[nH]c(C)c(C(C)=O)c1C [MLS000053479], which IC50 [1] is on record?
**A.** Its IC50 is 32.9 µM.

**Q.** CCOC(=O)c1cnc(-n2nc(C)cc2C)nc1NC1CCCCC1 [4-(cyclohexylamino)-2-(3,5-dimethyl-1-pyrazolyl)-5-pyrimidinecarboxylic acid ethyl ester] was tested. Which IC50 did it give?
**A.** The IC50 was 5.67 µM.

**Q.** For COc1ccc(C(=O)Nn2c(SCC(=O)NCc3ccco3)nc3ccccc3c2=O)cc1 [MLS000097349], which IC50 is on record?
**A.** Its IC50 is 5.75 µM.

**Q.** For CCCS(=O)(=O)c1nnnn1-c1cccc(OC)c1 [1-(3-methoxyphenyl)-5-(propylsulfonyl)-1H-tetrazole], which IC50 is on record?
**A.** The IC50 was 4.96 µM.

**Q.** For CCCC(=O)N1CCN(c2ccc(NC(=O)c3cc4ccccc4o3)cc2Cl)CC1 [MLS000096729], which IC50 is on record?
**A.** The IC50 was 8.79 µM.

**Q.** COc1cccc(Cn2c(NCc3ccco3)nc3c2c(=O)n(C)c(=O)n3C)c1 [8-(2-furanylmethylamino)-7-[(3-methoxyphenyl)methyl]-1,3-dimethylpurine-2,6-dione] was tested. Which IC50 [1] did it give?
**A.** Its IC50 is 25.4 µM.

**Q.** For COC(=O)c1ccc(-n2c(O)cc(N3CCC(n4c(=O)[nH]c5ccccc54)CC3)c2O)cc1 [4-[2,5-dioxo-3-[4-(2-oxo-3H-benzimidazol-1-yl)-1-piperidinyl]-1-pyrrolidinyl]benzoic acid methyl ester], which IC50 is on record?
**A.** Its IC50 is over 99 µM.

**Q.** How did the IC50 turn out when O=C(Nc1ccccc1NC(=O)NC1CCCCC1)NC1CCCCC1 [1-cyclohexyl-3-[2-(cyclohexylcarbamoylamino)phenyl]urea] was run?
**A.** Its IC50 is 1.64 µM.

**Q.** How did the IC50 turn out when COc1cccc2c1C(=O)c1c(O)c3c(c(O)c1C2=O)C[C@@](O)(C(C)=O)C[C@@H]3O[C@H]1C[C@H](N)[C@H](O)[C@H](C)O1 [(7S,9S)-9-acetyl-7-[(2R,4S,5S,6S)-4-amino-5-hydroxy-6-methyloxan-2-yl]oxy-6,9,11-trihydroxy-4-methoxy-8,10-dihydro-7H-tetracene-5,12-dione;hydrochloride] was run?
**A.** The IC50 was 0.54 µM.

**Q.** For O=S(=O)(C/C(=C/CO)S(=O)(=O)c1ccccc1)c1ccccc1 [(Z)-3,4-bis(benzenesulfonyl)but-2-en-1-ol], which IC50 [1] is on record?
**A.** The IC50 was 18 µM.

**Q.** Cc1ccc(-c2nc(-c3ccccc3)no2)c(Cl)c1 [5-(2-chloranyl-4-methyl-phenyl)-3-phenyl-1,2,4-oxadiazole] was tested. Which IC50 did it give?
**A.** The IC50 was 4.71 µM.

**Q.** For O=C(O)c1cccc(COc2ccccc2Cl)c1 [3-[(2-chloranylphenoxy)methyl]benzoic acid], which IC50 is on record?
**A.** The IC50 was 0.69 µM.

**Q.** Which IC50 does the source give for c1cncc(-c2nnc(SCc3nc4ccccc4[nH]3)o2)c1 [MLS000062679] here?
**A.** The IC50 was over 99 µM.

**Q.** Which IC50 [1] does the source give for Cn1c(-c2ccccc2)cc2c3no[n+]([O-])c3ccc21 [6-methyl-3-oxidanidyl-7-phenyl-pyrrolo[2,3-g][2,1,3]benzoxadiazol-3-ium] here?
**A.** The IC50 was 15 µM.

**Q.** Which IC50 does the source give for CC(=O)Nc1ccccc1OCC(=O)c1cc(C)n(Cc2cccs2)c1C [MLS000056239] here?
**A.** Its IC50 is 2.78 µM.

**Q.** For O=C(c1ccc(Cl)cc1)N1CCCCC(Sc2nnc(-c3ccc4c(c3)OCO4)o2)C1=O (stereo not drawn) [3-[[5-(1,3-benzodioxol-5-yl)-1,3,4-oxadiazol-2-yl]sulfanyl]-1-(4-chlorobenzoyl)azepan-2-one], which IC50 is on record?
**A.** Its IC50 is 1.07 µM.

**Q.** How did the IC50 turn out when N#Cc1c(NC(=O)CSc2nc[nH]n2)sc2c1CCCCC2 [N-(3-cyano-5,6,7,8-tetrahydro-4H-cyclohepta[b]thien-2-yl)-2-(1H-1,2,4-triazol-3-ylthio)acetamide] was run?
**A.** The IC50 was 0.098 µM.

**Q.** With CCn1nc(-c2ccccc2)nc2c(=O)n(C)c(=O)nc1-2 [1-Ethyl-6-methyl-3-phenyl-1H-pyrimido[5,4-e][1,2,4]triazine-5,7-dione] as the compound, how does the IC50 read?
**A.** The IC50 was 4.73 µM.

**Q.** With CCn1c2ccccc2c2cc(Nc3cc(C)nc4ncnn34)ccc21 [(9-ethylcarbazol-3-yl)-(5-methyl-[1,2,4]triazolo[1,5-a]pyrimidin-7-yl)amine] as the compound, how does the IC50 read?
**A.** Its IC50 is 6.19 µM.

**Q.** For CCCCOc1ccc(OC(=O)c2cccnc2)cc1 [(4-butoxyphenyl) pyridine-3-carboxylate], which IC50 [1] is on record?
**A.** The IC50 was 15.4 µM.

**Q.** Cc1ccc2nc(-c3ccccc3)cn2c1 [6-methyl-2-phenyl-imidazo[1,2-a]pyridine;hydrobromide] was tested. Which IC50 did it give?
**A.** Its IC50 is 1.96 µM.

**Q.** CCOC(=O)C1CCN(Cc2ccc(O)c3ncccc23)CC1 [1-(8-Hydroxy-quinolin-5-ylmethyl)-piperidine-4-carboxylic acid ethyl ester] was tested. Which IC50 did it give?
**A.** The IC50 was 9.85 µM.

**Q.** With Oc1c(CN2CCOCC2)cc(COCc2ccccc2)c2cccnc12 [5-(benzoxymethyl)-7-(morpholinomethyl)quinolin-8-ol] as the compound, how does the IC50 read?
**A.** Its IC50 is 6.06 µM.

**Q.** How did the IC50 [1] turn out when CC(=O)c1c(C)[nH]c(C(=O)Nc2ccc(C)cn2)c1C [SMR000026816] was run?
**A.** The IC50 was 14.2 µM.

**Q.** With CCOc1ccc(C2=Nn3c(nnc3-c3ccccc3OC)SC2)cc1 [6-(4-ethoxyphenyl)-3-(2-methoxyphenyl)-7H-[1,2,4]triazolo[3,4-b][1,3,4]thiadiazine] as the compound, how does the IC50 read?
**A.** Its IC50 is over 0.407 µM.

**Q.** How did the IC50 turn out when Cc1nc2nc(-c3ccccc3)cn2nc1C [2,3-dimethyl-6-phenyl-imidazo[1,2-b][1,2,4]triazine] was run?
**A.** Its IC50 is over 11 µM.

**Q.** With Cc1ccc(-c2cc(C(=O)N3CCCC3)no2)cc1 [5-(4-methylphenyl)-3-(1-pyrrolidinylcarbonyl)isoxazole] as the compound, how does the IC50 read?
**A.** Its IC50 is over 3.67 µM.

**Q.** Which IC50 does the source give for c1ccc(N=C2N=C(Nc3ccccn3)c3ccccc32)nc1 [N-pyridin-2-yl-3-pyridin-2-yliminoisoindol-1-amine] here?
**A.** Its IC50 is 2.24 µM.

**Q.** How did the IC50 turn out when CCOc1ccccc1-n1c(SCC(=O)Nc2ccc(CC)cc2)nc2nnc(C)c-2c1N [MLS000047091] was run?
**A.** The IC50 was 5.99 µM.

**Q.** Which IC50 does the source give for CSCc1nnc(NC(=O)c2ccc(S(=O)(=O)N(CC(C)C)CC(C)C)cc2)o1 [4-(diisobutylsulfamoyl)-N-[5-[(methylthio)methyl]-1,3,4-oxadiazol-2-yl]benzamide] here?
**A.** The IC50 was over 11 µM.

**Q.** Which IC50 [1] does the source give for CCN(C(=O)c1ccc(C(C)(C)C)cc1)c1nnc(Cn2nnc3ccccc32)s1 [MLS000072751] here?
**A.** The IC50 was 10.4 µM.

**Q.** For CCOC(=O)C(C)Oc1cccc2c(=O)n(CC(=O)NCc3ccc4c(c3)OCO4)ccc12 (stereo not drawn) [ethyl 2-[(2-{[(2H-1,3-benzodioxol-5-ylmethyl)carbamoyl]methyl}-1-oxo-1,2-dihydroisoquinolin-5-yl)oxy]propanoate], which IC50 is on record?
**A.** Its IC50 is 0.315 µM.

**Q.** Cc1cc(NC(=O)CCCS(=O)(=O)c2nc(-c3cccs3)cc(C(F)(F)F)n2)no1 [MLS000086269] was tested. Which IC50 did it give?
**A.** Its IC50 is 8.2 µM.

**Q.** How did the IC50 turn out when c1ccc(-n2ncc3c(N4CCCCC4)ncnc32)cc1 [1-phenyl-4-(1-piperidinyl)pyrazolo[3,4-d]pyrimidine] was run?
**A.** Its IC50 is 5.86 µM.

**Q.** Which IC50 [1] does the source give for COc1ccc(NC(=O)NCCCN2CCN(c3cc(C)ccc3C)CC2)cc1 [1-[3-[4-(2,5-dimethylphenyl)-1-piperazinyl]propyl]-3-(4-methoxyphenyl)urea] here?
**A.** The IC50 was 24.3 µM.

**Q.** For CCOc1ccc(-c2noc(CCC(=O)O)n2)cc1 [3-(3-p-phenetyl-1,2,4-oxadiazol-5-yl)propionic acid], which IC50 is on record?
**A.** Its IC50 is 3.89 µM.

**Q.** Which IC50 does the source give for COc1cc(C2c3ccc(N(C)C)cc3OC(=N)C2C#N)cc2c1OCO2 (stereo not drawn) [2-amino-7-(dimethylamino)-4-(7-methoxy-1,3-benzodioxol-5-yl)-4H-1-benzopyran-3-carbonitrile] here?
**A.** The IC50 was over 3.67 µM.

**Q.** With CC(NC(=O)Nc1nnc(C(F)(F)F)s1)(C(F)(F)F)C(F)(F)F [1-(1,1,1,3,3,3-hexafluoro-2-methylpropan-2-yl)-3-[5-(trifluoromethyl)-1,3,4-thiadiazol-2-yl]urea] as the compound, how does the IC50 read?
**A.** Its IC50 is 6.25 µM.

**Q.** Which IC50 [1] does the source give for COc1cc2c(C#N)c(N3CCN(c4ccccc4OC)CC3)nc(N)c2c(N)n1 [1,8-diamino-6-methoxy-3-(4-(2-methoxyphenyl)piperazin-1-yl)-2,7-naphthyridine-4-carbonitrile] here?
**A.** Its IC50 is 29.7 µM.

**Q.** Which IC50 does the source give for COC(=O)c1nn(-c2ccc(-c3ccccc3)cc2)cc1O [4-hydroxy-1-(4-phenylphenyl)-3-pyrazolecarboxylic acid methyl ester] here?
**A.** The IC50 was over 33 µM.

**Q.** Which IC50 does the source give for c1c2c(cc3sc(N4CCCCC4)nc13)OCCO2 [2-(1-piperidinyl)-6,7-dihydro-[1,4]dioxino[2,3-f][1,3]benzothiazole] here?
**A.** The IC50 was 3.91 µM.
